These results are taken from ChEMBL document CHEMBL3758078, “Modification of the anabaseine pyridine nucleus allows achieving binding and functional selectivity for the α3β4 nicotinic acetylcholine receptor subtype” (Eur J Med Chem, 2016).

One may read the Ki as the equilibrium dissociation constant of an inhibitor or competing ligand from its target. High values mean lower affinity, low ones higher affinity. For orientation: Emax means the size of the effect at its maximum, as opposed to the concentration needed. In general, EC50 refers to the concentration that produces a half-maximal response.

The source made the active and inactive calls. The rule behind the calls is not given here.

Experiment [1] is filed under the species Homo sapiens. In words: Selectivity ratio of Ki for rat alpha4beta2 nACh receptor to Ki for human alpha3beta4 nACh receptor.
In experiment [2] the target is T1, Neuronal acetylcholine receptor; alpha3/beta4 (Homo sapiens, UniProt P30926+P32297). The experiment is described as follows: Displacement of [3H]-epibatidine from human alpha3beta4 nACh receptor expressed in HEK293 cells preincubated for 5 mins followed by radioligand addition by beta counting analysis. It counts as cell-based. (In general: Loss of bound radioactivity is the signal in a displacement assay; it reports binding, not function.)

Experiment [3] has as its target Neuronal acetylcholine receptor; alpha4/beta2 (Rattus norvegicus, UniProt P09483+P12390). The experiment is described as follows: Displacement of [3H]-epibatidine from rat alpha4beta2 nACh receptor expressed in rat cortical membrane preincubated for 30 mins followed by radioligand addition by […] analysis. It counts as cell membranes.
In experiment [4] the target is Neuronal acetylcholine receptor subunit alpha-7 (Rattus norvegicus, UniProt Q05941). The experiment is described as follows: Displacement of [125I] alpha bungarotoxin from rat alpha7 nACh receptor expressed in rat hippocampal membrane preincubated for 30 mins followed by radioligand addition by gamma counting analysis. It counts as cell membranes, Hippocampus.
The species entered for experiment [5] is Homo sapiens. In words: Selectivity ratio of Ki for rat alpha7 nACh receptor to Ki for human alpha3beta4 nACh receptor.
For experiment [6], the target named is T2, Neuronal acetylcholine receptor; alpha4/beta2 (Homo sapiens) (UniProt P17787+P43681). The experiment is described as follows: Antagonist activity at human alpha4beta2 nACh receptor. It is filed as protein-complex assay.
Experiment [7] addresses T1, Neuronal acetylcholine receptor; alpha3/beta4. The experiment is described as follows: Antagonist activity at human alpha3beta4 nACh receptor. It is filed as protein-complex assay.
The target is the same in experiment [8]. In words: Agonist activity at human alpha3beta4 nACh receptor expressed in rat […] cells assessed as increase in current amplitudes at 0.1 to 100 uM after 2 to 3 days by patch clamp assay relative to acetylcholine. It counts as cell-based.
Experiment [9] concerns the target T3, Neuronal acetylcholine receptor subunit alpha-7 (Homo sapiens, UniProt P36544). In words: Agonist activity at human alpha7 nACh receptor expressed in rat GH4C1 cells assessed as increase in current amplitudes at 0.1 to 100 uM after 2 to 3 days by patch clamp assay. It counts as cell-based. The conditions noted are these: GH4-C1. On the technique in general: In patch-clamp work, channel activity is measured electrically.

For experiment [10], the target named is T2, Neuronal acetylcholine receptor; alpha4/beta2 (Homo sapiens). In words: Agonist activity at human alpha4beta2 nACh receptor expressed in rat […] cells assessed as increase in current amplitudes at 0.1 to 100 uM after 2 to 3 days by patch clamp assay. It counts as cell-based.
The target of experiment [11] is T1, Neuronal acetylcholine receptor; alpha3/beta4. In words: Agonist activity at human alpha3beta4 nACh receptor expressed in rat GH4C1 cells assessed as increase in current amplitudes after 2 to 3 days by patch clamp assay. It is filed as cell-based, GH4-C1.
Experiment [12] addresses T3, Neuronal acetylcholine receptor subunit alpha-7. In words: Agonist activity at human alpha7 nACh receptor expressed in rat GH4C1 cells assessed as increase in current amplitudes after 2 to 3 days by patch clamp assay. It counts as cell-based, GH4-C1.

Neuronal acetylcholine receptor subunit alpha-7 (Rattus norvegicus, UniProt Q05941), sequence (Q05941 whole entry): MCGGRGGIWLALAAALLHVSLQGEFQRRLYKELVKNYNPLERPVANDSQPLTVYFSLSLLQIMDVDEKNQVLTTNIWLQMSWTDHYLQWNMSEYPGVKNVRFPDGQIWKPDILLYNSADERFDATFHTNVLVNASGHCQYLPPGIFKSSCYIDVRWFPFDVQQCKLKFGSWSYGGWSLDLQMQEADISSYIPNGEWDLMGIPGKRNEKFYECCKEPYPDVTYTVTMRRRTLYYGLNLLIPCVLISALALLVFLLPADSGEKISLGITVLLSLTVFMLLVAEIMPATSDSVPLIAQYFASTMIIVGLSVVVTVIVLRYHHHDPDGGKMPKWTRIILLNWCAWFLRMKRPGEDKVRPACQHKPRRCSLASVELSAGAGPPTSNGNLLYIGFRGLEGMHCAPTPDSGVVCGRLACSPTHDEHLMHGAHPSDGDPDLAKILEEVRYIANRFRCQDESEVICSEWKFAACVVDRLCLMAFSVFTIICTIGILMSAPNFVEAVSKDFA
T1 sequence (P30926 whole entry): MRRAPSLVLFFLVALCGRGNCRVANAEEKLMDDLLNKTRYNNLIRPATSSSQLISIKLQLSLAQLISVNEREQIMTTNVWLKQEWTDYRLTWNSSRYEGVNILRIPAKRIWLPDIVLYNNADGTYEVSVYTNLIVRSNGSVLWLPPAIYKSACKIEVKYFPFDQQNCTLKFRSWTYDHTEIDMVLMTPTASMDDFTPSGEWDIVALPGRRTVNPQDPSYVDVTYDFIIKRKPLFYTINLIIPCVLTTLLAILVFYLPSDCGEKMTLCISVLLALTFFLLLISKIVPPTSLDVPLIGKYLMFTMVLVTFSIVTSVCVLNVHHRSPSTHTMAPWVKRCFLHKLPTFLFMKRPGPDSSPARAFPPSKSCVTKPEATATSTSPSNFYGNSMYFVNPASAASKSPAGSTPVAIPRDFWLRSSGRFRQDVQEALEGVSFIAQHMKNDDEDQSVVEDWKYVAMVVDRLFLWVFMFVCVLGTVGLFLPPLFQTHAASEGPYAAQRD
T1 sequence (P32297 whole entry): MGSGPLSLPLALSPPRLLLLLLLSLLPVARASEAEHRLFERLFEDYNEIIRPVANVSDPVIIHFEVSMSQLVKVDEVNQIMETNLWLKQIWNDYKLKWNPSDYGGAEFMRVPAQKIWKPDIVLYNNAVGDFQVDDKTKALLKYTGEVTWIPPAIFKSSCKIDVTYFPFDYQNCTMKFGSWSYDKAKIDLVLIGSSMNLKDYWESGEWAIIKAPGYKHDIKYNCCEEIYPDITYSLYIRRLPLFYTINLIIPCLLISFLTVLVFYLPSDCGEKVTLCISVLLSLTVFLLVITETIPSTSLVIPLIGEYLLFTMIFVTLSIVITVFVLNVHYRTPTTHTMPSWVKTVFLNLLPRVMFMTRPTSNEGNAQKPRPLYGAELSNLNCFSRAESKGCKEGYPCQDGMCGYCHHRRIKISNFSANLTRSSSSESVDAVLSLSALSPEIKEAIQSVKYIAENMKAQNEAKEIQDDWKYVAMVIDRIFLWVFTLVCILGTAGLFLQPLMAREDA
Neuronal acetylcholine receptor; alpha4/beta2, sequence (P09483 whole entry): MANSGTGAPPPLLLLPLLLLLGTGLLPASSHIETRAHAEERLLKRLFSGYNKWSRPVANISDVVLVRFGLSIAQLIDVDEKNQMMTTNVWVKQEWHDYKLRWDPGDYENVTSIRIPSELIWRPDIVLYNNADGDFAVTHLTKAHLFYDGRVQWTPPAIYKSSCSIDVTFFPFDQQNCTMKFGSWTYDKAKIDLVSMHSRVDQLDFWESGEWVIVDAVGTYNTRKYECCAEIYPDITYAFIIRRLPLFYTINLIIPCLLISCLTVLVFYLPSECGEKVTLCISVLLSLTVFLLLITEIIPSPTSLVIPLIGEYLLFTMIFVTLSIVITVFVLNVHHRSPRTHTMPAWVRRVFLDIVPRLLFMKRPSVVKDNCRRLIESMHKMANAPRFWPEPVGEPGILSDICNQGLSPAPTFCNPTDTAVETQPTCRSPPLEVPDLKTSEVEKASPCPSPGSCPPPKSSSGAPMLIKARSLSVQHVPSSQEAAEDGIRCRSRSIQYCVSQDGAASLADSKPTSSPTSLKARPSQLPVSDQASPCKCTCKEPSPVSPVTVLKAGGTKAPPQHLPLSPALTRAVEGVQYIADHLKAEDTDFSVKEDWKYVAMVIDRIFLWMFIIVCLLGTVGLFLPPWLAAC
Neuronal acetylcholine receptor; alpha4/beta2, sequence (P12390 whole entry): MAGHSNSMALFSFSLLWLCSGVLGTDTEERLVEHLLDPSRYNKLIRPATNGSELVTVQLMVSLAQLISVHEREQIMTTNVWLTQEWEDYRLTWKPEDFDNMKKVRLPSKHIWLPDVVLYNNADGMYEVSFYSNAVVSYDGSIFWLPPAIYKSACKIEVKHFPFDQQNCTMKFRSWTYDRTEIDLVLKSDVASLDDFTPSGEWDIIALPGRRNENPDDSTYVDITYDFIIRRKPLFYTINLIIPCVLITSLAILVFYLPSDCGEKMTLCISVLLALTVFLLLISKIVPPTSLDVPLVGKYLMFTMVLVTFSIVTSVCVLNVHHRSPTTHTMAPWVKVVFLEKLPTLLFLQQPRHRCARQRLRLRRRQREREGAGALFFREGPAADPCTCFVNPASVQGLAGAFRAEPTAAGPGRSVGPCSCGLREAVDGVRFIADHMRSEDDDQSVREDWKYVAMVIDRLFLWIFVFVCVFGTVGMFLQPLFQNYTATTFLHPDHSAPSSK
T3 sequence (P36544 whole entry): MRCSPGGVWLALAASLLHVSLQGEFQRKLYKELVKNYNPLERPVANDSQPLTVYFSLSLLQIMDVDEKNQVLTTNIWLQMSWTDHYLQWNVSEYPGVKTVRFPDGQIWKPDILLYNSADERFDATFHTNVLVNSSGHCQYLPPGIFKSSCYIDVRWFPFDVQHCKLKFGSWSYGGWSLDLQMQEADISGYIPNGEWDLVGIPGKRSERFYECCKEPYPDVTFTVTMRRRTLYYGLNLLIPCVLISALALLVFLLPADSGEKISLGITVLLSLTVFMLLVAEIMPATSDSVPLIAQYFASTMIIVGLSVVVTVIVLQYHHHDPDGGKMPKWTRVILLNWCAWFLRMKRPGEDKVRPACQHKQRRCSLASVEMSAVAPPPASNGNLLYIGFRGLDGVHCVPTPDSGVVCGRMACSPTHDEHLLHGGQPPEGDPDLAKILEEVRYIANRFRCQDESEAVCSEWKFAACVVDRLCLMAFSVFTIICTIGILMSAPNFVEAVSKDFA

With `Brc1cccc(C2=NCCCC2)c1`, the Ratio Ki turned out to be 168 in experiment [1] and 1.5 in experiment [5]. Moreover, the inhibition constant (Ki) was 29.8 nM in [2], 5020 nM in experiment [3] and 43.2 nM in [4].
For `Fc1cc(Br)cc(C2=NCCCC2)c1` the same measures were 37, 4.3, 48 nM, 1770 nM and 204 nM.
On to `Brc1cc(Br)cc(C2=NCCCC2)c1`, for which the Ratio Ki in [1] was found to be 266; in [5], 4.8. Also, the figures for the Ki in [2], in experiment [3] and in experiment [4] were 70.8 nM, 18800 nM and 343 nM, respectively. In addition, the inhibition entry in [6] and in experiment [7] was “inactive” throughout.
For `Clc1cccc(C2=NCCCC2)c1`, the values for the Ratio Ki in experiment [1] and in experiment [5] were 149 and 5.1, respectively. The Ki in experiment [2] was 77.2 nM; in [3] it was 11500 nM; in [4] it was 394 nM.
For `Fc1cccc(C2=NCCCC2)c1` the same measures were 19, 22, 108 nM, 2040 nM and 2370 nM.
`Ic1cccc(C2=NCCCC2)c1`: the maximum response (Emax) in [8] was 60%. The Ratio Ki in experiment [1] came to 806; in experiment [5] it was 2.4. Also, the figures for the inhibitory constant (Ki) in experiment [2], in experiment [3] and in [4] were 4.7 nM, 3790 nM and 11.3 nM, respectively. The inhibition entry in experiment [6] and in experiment [7] was “inactive” each time. For the same compound, the outcome in experiment [9] and in experiment [10] was inactive.
Take `OCc1cccc(C2=NCCCC2)c1`: the Ratio Ki in [1] was 438; in [5], 2. For the same compound, the inhibition constant (Ki) was 80 nM in experiment [2], 35000 nM in experiment [3] and 158 nM in experiment [4]. Also, the EC50 in [11] was 20000 nM; in experiment [12], 60000 nM.
Regarding `OCc1cccc([C@H]2C[C@@H]3CC[C@H]2N3)c1` (racemic), the figures for the Ratio Ki in [1] and in experiment [5] were 4.7 and 20, respectively. Besides, the inhibitory constant (Ki) in experiment [2] was 92 nM; in [3] it was 429 nM; in experiment [4] it was 1800 nM.
Consider `c1ccc(C2=NCCCC2)cc1`, for which the values for the Ratio Ki in experiment [1] and in experiment [5] were 11 and 12, respectively. Moreover, the results for the Ki in experiment [2], in experiment [3] and in [4] were 194 nM, 2080 nM and 2400 nM, respectively.
For `OCc1cc(F)cc(C2=NCCCC2)c1` the same measures were 9.3, 10, 80 nM, 744 nM and 821 nM.
For `Cc1cccc(C2=NCCCC2)c1` the same measures were 9.4, 2.5, 155 nM, 1450 nM and 384 nM.
For `c1cncc(C2=NCCCC2)c1` [ANABASEINE] the same measures were 0.6, 0.3, 107 nM, 67 nM and 32 nM.
Regarding `Oc1cccc([C@H]2C[C@@H]3CC[C@H]2N3)c1` (racemic), the Ratio Ki in experiment [1] was 1.6; in experiment [5], 7.6. Further, the Ki came to 80 nM in [2], 127 nM in experiment [3] and 609 nM in experiment [4].
The corresponding values for `Oc1cccc(C2=NCCCC2)c1` are 47, 14, 680 nM, 32000 nM and 9300 nM.
